From patent US20240018110A1, “RADIOLABELED COMPOUNDS TARGETING THE PROSTATE-SPECIFIC MEMBRANE ANTIGEN” (THE UNIVERSITY OF BRITISH COLUMBIA, priority 2020, published 2024)

What follows are molecules tested against PSMA (Homo sapiens, UniProt Q04609) (assay: In vitro competitive binding assay).
Sequence of PSMA (Q04609 whole entry): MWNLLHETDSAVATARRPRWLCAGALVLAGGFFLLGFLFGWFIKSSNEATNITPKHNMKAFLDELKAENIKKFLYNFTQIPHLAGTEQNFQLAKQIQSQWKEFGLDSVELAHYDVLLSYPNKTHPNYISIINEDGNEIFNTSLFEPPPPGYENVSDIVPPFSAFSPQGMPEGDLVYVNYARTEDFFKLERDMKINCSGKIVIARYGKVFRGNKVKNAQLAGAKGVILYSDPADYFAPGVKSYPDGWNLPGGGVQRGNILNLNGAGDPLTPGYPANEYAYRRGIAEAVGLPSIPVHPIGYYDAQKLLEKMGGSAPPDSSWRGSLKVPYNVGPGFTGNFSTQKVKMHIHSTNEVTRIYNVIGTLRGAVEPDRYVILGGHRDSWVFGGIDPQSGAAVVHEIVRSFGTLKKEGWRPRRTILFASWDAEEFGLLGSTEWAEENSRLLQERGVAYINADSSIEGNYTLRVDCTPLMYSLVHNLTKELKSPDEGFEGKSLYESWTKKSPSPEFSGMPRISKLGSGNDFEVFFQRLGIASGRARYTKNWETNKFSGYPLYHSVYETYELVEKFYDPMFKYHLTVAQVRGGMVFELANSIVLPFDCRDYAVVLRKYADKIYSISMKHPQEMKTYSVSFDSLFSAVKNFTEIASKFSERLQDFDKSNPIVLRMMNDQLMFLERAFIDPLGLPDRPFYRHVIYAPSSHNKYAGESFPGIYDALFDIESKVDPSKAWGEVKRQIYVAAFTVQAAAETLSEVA

SMILES	Ki
O=C(O)CCC[C@@H](OC(=O)N[C@@H](CCCCNC(=O)[C@H](Cc1c2ccccc2cc2ccccc12)NC(=O)[C@H]1CC[C@H](CNC(=O)CN2CCN(CC(=O)O)CCN(CC(=O)O)CCN(CC(=O)O)CC2)CC1)C(=O)O)C(=O)O [AR-2-050-2, DOTA-PSMA-Aad-carbamate]	240 nM
O=C(O)CCC[C@H](OC(=O)N[C@@H](CCCCNC(=O)[C@H](Cc1c2ccccc2cc2ccccc12)NC(=O)[C@H]1CC[C@H](CNC(=O)CCc2ccc(O)c(CN(CCN(CC(=O)O)Cc3cc(CCC(=O)O)ccc3O)CC(=O)O)c2)CC1)C(=O)O)C(=O)O [AR-2-113-1, HBED-CC-PSMA-Aad-carbamate]	3.44 nM
O=C(O)CCC[C@@H](OC(=O)N[C@@H](CCCCNC(=O)[C@H](Cc1c2ccccc2cc2ccccc12)NC(=O)[C@H]1CC[C@H](CNC(=O)CCc2ccc(O)c(CN(CCN(CC(=O)O)Cc3cc(CCC(=O)O)ccc3O)CC(=O)O)c2)CC1)C(=O)O)C(=O)O [AR-2-113-2, HBED-CC-PSMA-Aad-carbamate]	56.3 nM

Now from value to molecule:

Ki	SMILES
461 nM	O=C(O)CCC[C@H](NC(=O)N[C@@H](CSC[C@@H](NC(=O)[C@H](Cc1c2ccccc2cc2ccccc12)NC(=O)C1CCC(CNC(=O)CN2CCN(CC(=O)O)CCN(CC(=O)O)CCN(CC(=O)O)CC2)CC1)C(=O)O)C(=O)O)C(=O)O (some centres unmarked) [CCZ02033]
1.61 ± 0.04 nM	O=C(O)CCC[C@H](NC(=O)N[C@@H](CCCONC(=O)[C@H](Cc1c2ccccc2cc2ccccc12)NC(=O)C1CCC(CNC(=O)CN2CCN(CC(=O)O)CCN(CC(=O)O)CCN(CC(=O)O)CC2)CC1)C(=O)O)C(=O)O (some centres unmarked) [CCZ02018]
1.23 nM	O=C(O)CCC[C@H](NC(=O)N[C@@H](COCCNC(=O)[C@H](Cc1c2ccccc2cc2ccccc12)NC(=O)C1CCC(CNC(=O)CN2CCN(CC(=O)O)CCN(CC(=O)O)CCN(CC(=O)O)CC2)CC1)C(=O)O)C(=O)O (some centres unmarked) [CCZ02011]
11.9 nM	O=C(O)CC[C@H](NC(=O)N[C@@H](C[C@H]1C[C@@H]1CNC(=O)[C@H](Cc1c2ccccc2cc2ccccc12)NC(=O)[C@H]1CC[C@H](CNC(=O)CN2CCN(CC(=O)O)CCN(CC(=O)O)CCN(CC(=O)O)CC2)CC1)C(=O)O)C(=O)O [PD-6-49]
17 nM	O=C(O)CCC[C@H](NC(=O)N[C@@H](CCCCCNC(=O)[C@H](Cc1c2ccccc2cc2ccccc12)NC(=O)C1CCC(CNC(=O)CN2CCN(CC(=O)O)CCN(CC(=O)O)CCN(CC(=O)O)CC2)CC1)C(=O)O)C(=O)O (some centres unmarked) [CCZ02010]
